A short description of one series: Cytotoxicity assay (MTT). Type of series: cell-based, African green monkey (Cercopithecus aethiops). To be noted: African green monkey, free (not encapsulated), Vero cells. The procedure:
Initially, we evaluated the influence of liposomes on cell viability. For this, monolayers of Vero cells (10^4 cells/mL) were incubated with several concentrations of 2-aminomethyl-3-hydroxy-1,4 naphthoquinone derivatives that either were or were not encapsulated in the liposome (0.5 to 10 μM) for 48 h at 37 °C (Table 2). Following this, 1 mg/mL of 3-(4,5-Dimethylthiazol-2-yl)-2,5 Diphenyl Tetrazolium Bromide was added to each well for 4 h at 37 °C and the resulting purple formazan was followed at 570 nm. Since liposomes are considered an excellent delivery system, it may be reasonable for the liposome to increase the cytotoxic effect on cells.
Vero cells cultivated in 96-multiwell plates (1 × 10^4 cells/well) were incubated with liposomes coupled to 2-aminomethyl-3-hydroxy-1,4-naphthoquinones in different concentrations (0.5, 1, 5 and 10 μM) for 48 h at 37 °C and 5% CO2 atmosphere. Then, 50 μL of 3-(4,5-dimethylthiazol-2-yl)-2,5 diphenyl MTT (1 mg/mL, Sigma-Aldrich, St Louis, MO, USA) was added to each well for 4 h at 37 °C [48]. The MTT reduction in living cells creates formazan, a purple compound that is absorbed at 570 nm. The 50% cytotoxic concentration (CC50) was calculated by linear regression analysis of the dose–response curves.

Another series relates to HSV-1. The arrangement: method as in PMID 24493066, PMID 26913545. To be noted: free compounds, previous studies against HSV-1; ref [36],[38]; cited from earlier work.
The subject of the next series is BALB/c. The arrangement: method as in earlier work. The settings on record: oral administration, ref [37]; cited from earlier work.
For a further series, the system named is HSV-1 strain SC-16. Kind of series: Yield reduction assay. The settings on record: for EC50: Human alphaherpesvirus 1, SC16; for SI (CC50/EC50 ratio): free (non-encapsulated) derivatives, concentrations up to 10 μM. In kind it is cell-based, Herpes Simplex Virus 1. The procedure:
Briefly, after incubation with HSV-1 (MOI of 0.1) for 1 h at 37 °C, cells were washed with MEM 5% FCS and incubated with acyclovir, […] from 0.01 to 10 μM for 24 h in atmosphere, with 5% CO2 at 37 °C. After the dilution (1:10) of the viral suspension, new 24-well plates were used to determine the EC50 values, based on viral control.
For all antiviral assays, strain SC-16 HSV-1 was used at a multiplicity of infection (MOI) of 0.1 to infect Vero cells at 3 × 10^5 cells/well using a modified yield reduction assay. All aminomethylnaphthoquinone derivatives were previously diluted in pre-chilled MEM with 5% FCS.
To determine the HSV-1 title, Vero cells maintained in 24-multiwell plates (3 × 10^5 cell/well) were infected with HSV-1 strain SC-16 ([…]) for 1 h at 37 °C and 5% CO2 atmosphere.
After the removal of the viral inoculum, cells were treated with 0.01 µM to 10 µM of compound 1, 2, 3 and ACV encapsulated in liposomes for 24 h at 37 °C and 5% CO2 atmosphere. Then, the cells were subjected to three cycles of freezing and thawing and the inoculum diluted (1:10) to a new infection in 24-multiwell plates (10^5 cells/well) for 1 h at 37 °C and 5% CO2 atmosphere. The cells were covered with MEM 2X, 5% FCS and 2% methylcellulose for 48h at 37 °C and the viral title was determined by the number of viral plaque units per mL (PFU/mL). EC50 values, which means the drug concentration able to inhibit 50% of the viral plaque formation, were determined by linear regression compared to the untreated infected control.

We go through four molecules from publication PMC8586984, “Antiviral Potential of Naphthoquinones Derivatives Encapsulated within Liposomes” (Molecules, 2021).

`Nc1nc2c(ncn2COCCO)c(=O)[nH]1` [Acyclovir, acyclovir, reference compound]: the midpoint of cytotoxicity in the series “Cytotoxicity assay (MTT)”, the CC50 at 48 h, lay at 15 ± 1 µM. For the same molecule, the SI in the series with HSV-1 was 0.80.

`CCCCNC(C1=C(O)C(=O)c2ccccc2C1=O)c1ccc(Cl)cc1Cl` (stereo not drawn) [compound 1]: the “Effect on transaminases level or kidneys functions” value with BALB/c is given as “no effect on transaminases level or kidneys functions”. Also, in “Cytotoxicity assay (MTT)”, the CC50 (as a rule, the concentration at which the toxic effect on the cells reaches its halfway point) at 48 h is 19 ± 1 µM. Also, in the series on HSV-1 strain SC-16, the EC50 (as a rule, the midpoint of the concentration-response curve) came to 1.98 ± 0.3 µM and the “SI (CC50/EC50 ratio)” value was determined as 9.6.

Molecule `O=C1C(O)=C(C(NCc2ccccc2)c2ccc(Cl)cc2Cl)C(=O)c2ccccc21` (stereo not drawn) [compound 2] returned a CC50 at 48 h in the series “Cytotoxicity assay (MTT)” of 22 ± 2 µM. Besides, in the series with HSV-1 strain SC-16, the 50% effective concentration (EC50) was 1.06 ± 0.49 µM and the “SI (CC50/EC50 ratio)” value is given as 20.75.

In “Cytotoxicity assay (MTT)”, `O=C1C(O)=C(C(NCc2ccccc2)c2ccc([N+](=O)[O-])cc2)C(=O)c2ccccc21` (stereo not drawn) [compound 3] yielded a CC50 at 48 h of 17 ± 2 µM. Moreover, in the series on HSV-1 strain SC-16, the half-maximal effective concentration (EC50) was found to be 3.1 µM and the “SI (CC50/EC50 ratio)” value is on record as 5.48.
